Like-named read-outs stand apart in the source and are kept apart here.
Biological target: T1, human LPA1 (Homo sapiens, UniProt Q92633)
T1 construct: expressed in transfected cells; host or cells: Chinese hamster ovary (CHO) cells
Experiment: LPA1 functional antagonist assay (LPA-induced calcium flux in CHO cells overexpressing human LPA1)
Type: cell-based
Conditions: read-out: hLPA1 IC50
In short: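 CHO cells overexpressing human LPA1, dye-loaded 30 min at 37 °C, then given compound (0.08 nM–5 μM final, 0.5% DMSO) in HBSS/20 mM HEPES/0.1% fatty-acid-free BSA for 20 min at room temperature before 10 nM LPA. IC50 as 50% inhibition of LPA-evoked calcium flux, 4-parameter logistic fit.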

[1] = inhibition of calcium flux induced by 10 nM LPA, CHO cells overexpressing human LPA1

T1 sequence (Q92633 whole entry): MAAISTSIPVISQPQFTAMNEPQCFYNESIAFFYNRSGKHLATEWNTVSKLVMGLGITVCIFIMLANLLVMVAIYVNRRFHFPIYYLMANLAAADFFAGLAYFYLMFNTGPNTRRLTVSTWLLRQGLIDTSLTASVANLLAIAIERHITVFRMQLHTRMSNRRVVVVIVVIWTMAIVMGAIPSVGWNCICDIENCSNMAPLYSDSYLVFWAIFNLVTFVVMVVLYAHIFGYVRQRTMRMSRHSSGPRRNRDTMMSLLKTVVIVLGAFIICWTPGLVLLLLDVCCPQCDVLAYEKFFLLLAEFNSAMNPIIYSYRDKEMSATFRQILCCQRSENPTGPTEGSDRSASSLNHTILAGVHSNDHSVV

Row | SMILES | IC50 [nM] | IC50 [1] [nM]
1 | CCCCn1nnnc1Cc1c(-c2ccc(O[C@H]3CCC[C@H](C(=O)O)C3)c(C)n2)nnn1C [Example 365, (1S,3S)-3-((6-(5-((1-butyl-1H-tetrazol-5-yl)methyl)-1-methyl-1H-1,2,3-triazol-4-yl)-2-methylpyridin-3-yl)oxy)cyclohexane-1-carboxylic acid] | 322 | 
2 | COCCCc1nc(NCc2c(-c3ccc(O[C@H]4CCC[C@H](C(=O)O)C4)c(C)n3)nnn2C)no1 [Example 146] |  | 103
3 | Cc1nc(-c2nnn(C)c2CNc2noc(C(C)(C)C)n2)ccc1O[C@H]1CCC[C@H](C(=O)O)C1 [Example 155] |  | 85
4 | Cc1nc(-c2nnn(C)c2CNc2nc3c(s2)CCCC3)ccc1O[C@H]1CCC[C@H](C(=O)O)C1 [Example 17] |  | 1200
5 | Cc1nc(-c2nnn(C)c2Cn2nnc(-c3ccc(F)cc3)n2)ccc1O[C@H]1CCC[C@H](C(=O)O)C1 [Example 322, (1S,3S)-3-((6-(5-((5-(4-fluoro-phenyl)-2H-tetrazol-2-yl)methyl)-1-methyl-1H-1,2,3-triazol-4-yl)-2-methylpyridin-3-yl)oxy)cyclo-hexane-1-carboxylic acid] |  | 243
6 | Cc1nc(-c2nnn(C)c2Cn2nnnc2CCC(C)C)ccc1O[C@H]1CCC[C@H](C(=O)O)C1 [Example 309, (1S,3S)-3-{[2-methyl-6-(1-methyl-5-{[5-(3-methylbutyl)-1H-1,2,3,4-tetrazol-1-yl]methyl}-1H-1,2,3-triazol-4-yl)pyridin-3-yl]oxy}cyclohexane-1-carboxylic acid] |  | 191
7 | Cc1nc(-c2nnn(C)c2CNc2nnc(CC(C)C)o2)ccc1O[C@H]1CCC[C@H](C(=O)O)C1 [Example 54] |  | 191
8 | CCc1nc(-c2nnn(C)c2CNc2nc(C(C)C)ns2)ccc1O[C@H]1CCC[C@H](C(=O)O)C1 [Example 398, (1S,3S)-3-((2-ethyl-6-(5-(((3-isopropyl-1,2,4-thiadiazol-5-yl)amino)methyl)-1-methyl-1H-1,2,3-triazol-4-yl)pyridin-3-yl)oxy)cyclohexane-1-carboxylic acid] | 59 | 
9 | Cc1nc(-c2nnn(C)c2CNc2cnn(C3CCCCC3)n2)ccc1O[C@H]1CCC[C@H](C(=O)O)C1 [Example 27] |  | 100
10 | Cc1nc(-c2nnn(C)c2Cn2cc(C3(O)CCCCC3)nn2)ccc1O[C@H]1CCC[C@H](C(=O)O)C1 [Example 89] |  | 3270
11 | CCc1nc(-c2nnn(C)c2CNc2nc(C(C)(C)C)ns2)ccc1O[C@H]1CCC[C@H](C(=O)O)C1 [Example 394, (1S,3S)-3-((6-(5-(((3-(tert-butyl)-1,2,4-thiadiazol-5-yl)amino)methyl)-1-methyl-1H-1,2,3-triazol-4-yl)-2-ethylpyridin-3-yl)oxy)cyclohexane-1-carboxylic acid] | 66 | 
12 | Cc1nc(-c2nnn(C)c2Cn2cc(CC(C)C)nn2)ccc1O[C@H]1CCC[C@H](C(=O)O)C1 [Example 262, (1S,3S)-3-((6-(5-((4-isobutyl-1H-1,2,3-triazol-1-yl)methyl)-1-methyl-1H-1,2,3-triazol-4-yl)-2-methylpyridin-3-yl)oxy)cyclohexane-1-carboxylic acid] |  | 86
13 | Cc1nc(-c2nnn(C)c2Cn2nnc(OC3CCCC3)n2)ccc1O[C@H]1CCC[C@H](C(=O)O)C1 [Example 336, (1S,3S)-3-{[6-(5-{[5-(cyclopentyl-oxy)-2H-1,2,3,4-tetrazol-2-yl]methyl}-1-methyl-1H-1,2,3-triazol-4-yl)-2-methylpyridin-3-yl]oxy}cyclohexane-1-carboxylic acid] |  | 67
14 | Cc1nc(-c2nnn(C)c2CNc2nnn(Cc3ccccc3)n2)ccc1O[C@H]1CCC[C@H](C(=O)O)C1 [Example 391, (1S,3S)-3-((6-(5-(((2-benzyl-2H-tetrazol-5-yl)amino)methyl)-1-methyl-1H-1,2,3-triazol-4-yl)-2-methylpyridin-3-yl)oxy)cyclo-hexane-1-carboxylic acid] | 23 | 
15 | CCCCn1cnc(NCc2c(-c3ccc(O[C@H]4CCC[C@H](C(=O)O)C4)c(C)n3)nnn2C)n1 [Example 150] |  | 68.2
16 | Cn1nnc(-c2ccc(O[C@H]3CCC[C@H](C(=O)O)C3)cn2)c1Cn1nnnc1C1CCCC1 [Example 258, (1S,3S)-3-((6-(5-((5-cyclopentyl-1H-tetrazol-1-yl)methyl)-1-methyl-1H-1,2,3-triazol-4-yl)pyridin-3-yl)oxy)cyclohexane-1-carboxylic acid] |  | 433
17 | Cc1nc(-c2nnn(C)c2CNc2cc(C(C)(C)C)on2)ccc1O[C@H]1CCC[C@H](C(=O)O)C1 [Example 169] |  | 63

Further lines, results first:

Row | IC50 [nM] | IC50 [1] [nM] | SMILES
18 |  | 45 | CCOCc1nc(NCc2c(-c3ccc(O[C@H]4CCC[C@H](C(=O)O)C4)c(C)n3)nnn2C)no1 [Example 147]
19 |  | 37.3 | CCC(C)Cc1nc(NCc2c(-c3ccc(O[C@H]4CCC[C@H](C(=O)O)C4)cn3)nnn2C)no1 (mixture of isomers) [Example 290, (1S,3S)-3-((6-(1-methyl-5-(((5-(2-methylbutyl)-1,2,4-oxadiazol-3-yl)amino)methyl)-1H-1,2,3-triazol-4-yl)pyridin-3-yl)oxy)cyclohexane-1-carboxylic acid, racemate]
20 |  | 14 | Cc1nc(-c2nnn(C)c2Cn2nnc(C3CCCC3)n2)ccc1O[C@H]1CCC[C@H](C(=O)O)C1 [Example 329, (1S,3S)-3-((6-(5-((5-cyclopentyl-2H-tetrazol-2-yl)methyl)-1-methyl-1H-1,2,3-triazol-4-yl)-2-methylpyridin-3-yl)oxy)cyclo-hexane-1-carboxylic acid]
21 |  | 32 | CCc1nc(-c2nnn(C)c2Cn2nnc(CC3CC3)n2)ccc1O[C@H]1CCC[C@H](C(=O)O)C1 [Example 307, (1S,3S)-3-{[6-(5-{[5-(cyclopropyl-methyl)-2H-1,2,3,4-tetrazol-2-yl]methyl}-1-methyl-1H-1,2,3-triazol-4-yl)-2-ethylpyridin-3-yl]oxy}cyclohexane-1-carboxylic acid]
22 |  | 11 | Cc1nc(-c2nnn(C)c2Cc2noc(CCC(C)C)n2)ccc1O[C@H]1CCC[C@H](C(=O)O)C1 [Example 229, (1S,3S)-3-((6-(5-((5-isopentyl-1,2,4-oxadiazol-3-yl)methyl)-1-methyl-1H-1,2,3-triazol-4-yl)-2-methylpyridin-3-yl)oxy)cyclohexane-1-carboxylic acid]
23 |  | 42 | Cc1nc(-c2nnn(C)c2Cn2nnc(-c3ccccc3)n2)ccc1O[C@H]1CCC[C@H](C(=O)O)C1 [Example 107]
24 |  | 40 | Cc1nc(-c2nnn(C)c2Cc2nc(CC3CC3)no2)ccc1O[C@H]1CCC[C@H](C(=O)O)C1 [Example 246, (1S,3S)-3-((6-(5-((3-(cyclopropyl-methyl)-1,2,4-oxadiazol-5-yl)methyl)-1-methyl-1H-1,2,3-triazol-4-yl)-2-methylpyridin-3-yl)oxy)cyclohexane-1-carboxylic acid]
25 |  | 33.4 | Cn1nnc(-c2ccc(O[C@H]3CCC[C@H](C(=O)O)C3)cn2)c1CNc1noc(CCC2CCC2)n1 [Example 294, (1S,3S)-3-((6-(5-(((5-(2-cyclobutyl-ethyl)-1,2,4-oxadiazol-3-yl)amino)methyl)-1-methyl-1H-1,2,3-triazol-4-yl)pyridin-3-yl)oxy)cyclohexane-1-carboxylic acid]
26 |  | 19 | Cc1nc(-c2nnn(C)c2CNc2noc(C3(F)CCC3)n2)ccc1O[C@H]1CCC[C@H](C(=O)O)C1 [Example 148]
27 |  | 61 | Cc1nc(-c2nnn(C)c2CNc2ncn(-c3ccc(F)cc3)n2)ccc1O[C@H]1CCC[C@H](C(=O)O)C1 [Example 39]

Source: patent publication US11319315B2, “Cyclohexyl acid triazole azoles as LPA antagonists” (BRISTOL-MYERS SQUIBB COMPANY, priority 2017, dated 2022)
